Values quoted from earlier work as cited in patent US6491952B1, “Cholesterol lowering composition” (Triple Crown AB, priority 1998, dated 2002).

Settings: daily intake; references 1-5

SMILES	cholesterol lowering effect
CC[C@H](CC[C@@H](C)[C@H]1CC[C@H]2[C@@H]3CC=C4C[C@@H](O)CC[C@]4(C)[C@H]3CC[C@]12C)C(C)C [β-sitosterol]	cholesterol lowering effect
CC[C@H](CC[C@@H](C)[C@H]1CC[C@H]2[C@@H]3CC[C@H]4C[C@@H](O)CC[C@]4(C)[C@H]3CC[C@]12C)C(C)C [β-sitostanol]	cholesterol lowering effect
